Among the data in patent US12485169B2, “Compounds” (GREY WOLF THERAPEUTICS LIMITED, priority 2018, dated 2025) are IC50 values, retold here.

T1 sequence (Q9NZ08 37-941): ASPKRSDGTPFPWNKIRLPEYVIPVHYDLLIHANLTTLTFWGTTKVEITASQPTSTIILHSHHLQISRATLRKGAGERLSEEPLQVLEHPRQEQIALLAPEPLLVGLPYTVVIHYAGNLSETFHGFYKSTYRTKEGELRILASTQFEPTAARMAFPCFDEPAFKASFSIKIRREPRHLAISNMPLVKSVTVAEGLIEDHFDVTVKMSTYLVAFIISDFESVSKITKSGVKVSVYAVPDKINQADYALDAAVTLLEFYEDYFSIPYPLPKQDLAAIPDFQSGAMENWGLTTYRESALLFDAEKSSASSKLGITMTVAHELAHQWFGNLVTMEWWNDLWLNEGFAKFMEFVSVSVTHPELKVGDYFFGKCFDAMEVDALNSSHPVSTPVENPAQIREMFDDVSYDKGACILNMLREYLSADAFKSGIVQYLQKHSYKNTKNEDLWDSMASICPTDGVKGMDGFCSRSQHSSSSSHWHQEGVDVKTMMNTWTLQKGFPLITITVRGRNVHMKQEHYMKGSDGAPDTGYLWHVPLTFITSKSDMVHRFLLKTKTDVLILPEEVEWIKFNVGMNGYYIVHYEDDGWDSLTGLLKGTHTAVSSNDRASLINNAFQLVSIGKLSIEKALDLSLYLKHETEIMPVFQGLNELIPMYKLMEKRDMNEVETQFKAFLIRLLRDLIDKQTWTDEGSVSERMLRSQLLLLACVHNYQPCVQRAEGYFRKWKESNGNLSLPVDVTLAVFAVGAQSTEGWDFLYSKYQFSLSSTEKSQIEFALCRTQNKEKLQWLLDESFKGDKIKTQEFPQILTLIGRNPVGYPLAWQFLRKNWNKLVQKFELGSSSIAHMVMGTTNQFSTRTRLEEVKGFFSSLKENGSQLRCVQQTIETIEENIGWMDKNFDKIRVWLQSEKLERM

This experiment has as its target T1, Purified ERAP1 (37-941)-10His (ERAP1) (Homo sapiens, UniProt Q9NZ08).
T1 construct: Purified ERAP1 (37-941)-10His (ERAP1)
Nature of the experiment: ERAP1 mediated hydrolysis of an amide substrate (10-mer inhibition assay), biochemical system. The note with it: 10-mer substrate, 23° C., 1 h, excitation 279 nm / emission 355 nm; read-out: IC50 vs Decapeptide WRVYEKC(Dnp)ALK-acid (where Dnp is Dinitrophenyl maleimide) (10-mer). Here is the method: However, as ERAP1 hydrolyses the N-terminal amide bond and tryptophan is released this internal quenching is lost and the reaction is monitored by the increase in tryptophan fluorescence over the course of the assay. For the purposes of this application this assay is referred to as the “10mer inhibition assay” and compound potencies are calculated and expressed as IC50 as would be familiar to a person skilled in the art.
Biological Assay 1: ERAP1 Mediated Hydrolysis of an Amide Substrate Measured in a Biochemical System
Decapeptide WRVYEKC(Dnp)ALK-acid (where Dnp is Dinitrophenyl maleimide) (10-mer) L-Leucine 7-amido-4-methylcoumarin (L-AMC)
12.5 μL ERAP1 enzyme in 1×AB was combined with 250 nL test compound in DMSO. […] For detection, plates were read at excitation 365 nm and emission 442 nm (L-AMC) or excitation 279 nm and emission 355 nm (10-mer).
One may read the IC50 as the point on the concentration scale where inhibition reaches its midpoint. In the case of `COc1ccc(C(=O)O)cc1S(=O)(=O)Nc1cc(C(F)(F)F)ccc1N1CCC2(CC1)OCc1ccccc12` [Example 33, 3-(N-(2-(spiro[isobenzofuran-1,4′-piperidin]-1′-yl)-5-(trifluoromethyl)phenyl)sulfamoyl)-4-methoxybenzoic acid], the IC50 is < 0.5 µM.

In the case of `COc1ccc(C(=O)O)cc1S(=O)(=O)Nc1cc(C(F)(F)F)ccc1N1CCN(C(C)=O)CC1` [Example 34, 3-(N-(2-(4-acetylpiperazin-1-yl)-5-(trifluoromethyl)phenyl)sulfamoyl)-4-methoxybenzoic acid], the IC50 is > 5 µM. Regarding `COc1ccc(C(=O)O)cc1S(=O)(=O)Nc1cc(C(F)(F)F)ccc1N1CCC(O)CC1` [Example 35, 3-(N-(2-(4-hydroxypiperidin-1-yl)-5-(trifluoromethyl)phenyl)sulfamoyl)-4-methoxybenzoic acid], the IC50 was < 0.5 µM. For the molecule `COc1ccc(C(=O)O)cc1S(=O)(=O)Nc1cc(C(F)(F)F)ccc1N1CCC(O)C1` (stereo not shown) [Example 36, 3-(N-(2-(3-hydroxypyrrolidin-1-yl)-5-(trifluoromethyl)phenyl)sulfamoyl)-4-methoxybenzoic acid], the IC50 is < 5 µM. The result for `COc1ccc(C(=O)O)cc1S(=O)(=O)Nc1cc(C(F)(F)F)ccc1N1CC(O)C1` [Example 37, 3-(N-(2-(3-hydroxyazetidin-1-yl)-5-(trifluoromethyl)phenyl)sulfamoyl)-4-methoxybenzoic acid] reads < 5 µM; that for `COc1ccc(C(=O)O)cc1S(=O)(=O)Nc1cc(C(F)(F)F)ccc1N1CCC(C)(C)C1` [Example 39, 3-(N-(2-(3,3-dimethylpyrrolidin-1-yl)-5-(trifluoromethyl)phenyl)sulfamoyl)-4-methoxybenzoic acid], < 5 µM. The result for `COc1ccc(C(=O)O)cc1S(=O)(=O)Nc1cc(C(F)(F)F)ccc1N1CCN2CCC[C@@H]2C1` [Example 40, (R)-3-(N-(2-(hexahydropyrrolo[1,2-a]pyrazin-2(1H)-yl)-5-(trifluoromethyl)phenyl)sulfamoyl)-4-methoxybenzoic acid] reads < 5 µM; that for `COc1ccc(C(=O)O)cc1S(=O)(=O)Nc1cc(C(F)(F)F)ccc1N1CCCCC1=O` [Example 41, 4-methoxy-3-(N-(2-(2-oxopiperidin-1-yl)-5-(trifluoromethyl)phenyl)sulfamoyl)benzoic acid], < 0.5 µM; that for `Cc1ccc(C(=O)O)cc1S(=O)(=O)Nc1cc(C(F)(F)F)ccc1N1CCCOCC1` [Example 42, 3-(N-(2-(1,4-oxazepan-4-yl)-5-(trifluoromethyl)phenyl)sulfamoyl)-4-methylbenzoic acid], > 5 µM. Consider `CCc1ccc(C(=O)O)cc1S(=O)(=O)Nc1cc(C(F)(F)F)ccc1N1CCCOCC1` [Example 43, 3-(N-(2-(1,4-oxazepan-4-yl)-5-(trifluoromethyl)phenyl)sulfamoyl)-4-ethylbenzoic acid], for which the IC50 is < 0.5 µM. Turning to `COc1ccc(C(=O)O)cc1S(=O)(=O)Nc1cc(C(F)(F)F)ccc1N1CCCC1c1cc(C)no1` (stereo not shown) [Example 46, 4-methoxy-3-(N-(2-(2-(3-methylisoxazol-5-yl)pyrrolidin-1-yl)-5-(trifluoromethyl)phenyl)sulfamoyl)benzoic acid], the IC50 was < 5 µM. `COc1ccc(C(=O)O)cc1NS(=O)(=O)c1cc(C(F)(F)F)ccc1N1CCCCC1` [Example 49, 4-methoxy-3-((2-(piperidin-1-yl)-5-(trifluoromethyl)phenyl)sulfonamido)benzoic acid]: the IC50 is < 0.5 µM.

With `COc1ccc(C(=O)O)cc1NS(=O)(=O)c1cc(C(F)(F)F)ccc1N(C)C` [Example 51, 3-((2-(dimethylamino)-5-(trifluoromethyl)phenyl)sulfonamido)-4-methoxybenzoic acid], the IC50 was < 0.5 µM. On to `COc1ccc(C(=O)O)cc1NS(=O)(=O)c1cc(C(F)(F)F)ccc1N1CCOCC1` [Example 52, 4-methoxy-3-((2-morpholino-5-(trifluoromethyl)phenyl)sulfonamido)benzoic acid], for which the IC50 is < 5 µM. As to `COc1ccc(C(=O)O)cc1S(=O)(=O)Nc1cc(C(F)(F)F)ccc1N1CCCCC1` [Example 54, 4-methoxy-3-(N-(2-(piperidin-1-yl)-5-(trifluoromethyl)phenyl)sulfamoyl)benzoic acid], the IC50 was < 0.5 µM. Regarding `CC(C)c1ccc(C(=O)O)cc1S(=O)(=O)Nc1cc(C(F)(F)F)ccc1N1CCCCCC1` [Example 55, 3-(N-(2-(azepan-1-yl)-5-(trifluoromethyl)phenyl)sulfamoyl)-4-isopropylbenzoic acid], the IC50 is < 0.5 µM. As for `O=C(O)c1cc(F)cc(S(=O)(=O)Nc2cc(C(F)(F)F)ccc2N2CCCCC2)c1` [Example 59, 3-fluoro-5-(N-(2-(piperidin-1-yl)-5-(trifluoromethyl)phenyl)sulfamoyl)benzoic acid], the IC50 is < 0.5 µM. Regarding `CCc1ccc(C(=O)O)cc1S(=O)(=O)Nc1cc(C(F)(F)F)ccc1N1CCCCCC1` [Example 61, 3-(N-(2-(azepan-1-yl)-5-(trifluoromethyl)phenyl)sulfamoyl)-4-ethylbenzoic acid], the IC50 was > 5 µM. The result for `Cc1ccc(C(=O)O)cc1S(=O)(=O)Nc1cc(C(F)(F)F)ccc1N1CCCCCC1` [Example 62, 3-(N-(2-(azepan-1-yl)-5-(trifluoromethyl)phenyl)sulfamoyl)-4-methylbenzoic acid] reads < 0.5 µM; that for `COc1ccc(-c2nn[nH]n2)cc1NS(=O)(=O)c1cc(C(F)(F)F)ccc1N1CCCCC1` [Example 63, N-(2-methoxy-5-(tetrazol-5-yl)phenyl)-2-(piperidin-1-yl)-5-(trifluoromethyl) benzenesulfonamide], < 5 µM; that for `COc1ccc(C(=O)O)cc1S(=O)(=O)Nc1ccc(Cl)cc1N1CCCCC1` [Example 65, 3-(N-(4-chloro-2-(piperidin-1-yl)phenyl)sulfamoyl)-4-methoxybenzoic acid], < 0.5 µM. For the molecule `COc1ccc(C(=O)O)cc1S(=O)(=O)Nc1cc(Cl)ccc1N1CCCCC1` [Example 66, 3-(N-(5-chloro-2-(piperidin-1-yl)phenyl)sulfamoyl)-4-methoxybenzoic acid], the IC50 was < 0.5 µM.

Take `Cc1ccc(C(=O)O)cc1S(=O)(=O)Nc1cc(C(F)(F)F)ccc1N1CCCCC1` [Example 67, 4-methyl-3-(N-(2-(piperidin-1-yl)-5-(trifluoromethyl)phenyl)sulfamoyl)benzoic acid]: the IC50 is < 0.5 µM.

Regarding `COc1ccc(C(=O)O)cc1S(=O)(=O)Nc1cc(C(F)(F)F)ccc1N1CCCCCC1` [Example 68, 3-(N-(2-(azepan-1-yl)-5-(trifluoromethyl)phenyl)sulfamoyl)-4-methoxybenzoic acid], the IC50 is < 0.5 µM. Turning to `Cc1ccc(S(=O)(=O)Nc2cc(C(F)(F)F)ccc2N2CCCCC2)cc1C(=O)O` [Example 70, 2-methyl-5-(N-(2-(piperidin-1-yl)-5-(trifluoromethyl)phenyl)sulfamoyl)benzoic acid], the IC50 was < 5 µM. `COc1ccc(C(=O)O)cc1S(=O)(=O)Nc1cc(C(F)(F)F)ccc1N1CCOCC1` [Example 72, 4-methoxy-3-(N-(2-morpholino-5-(trifluoromethyl)phenyl)sulfamoyl)benzoic acid]: the IC50 was < 0.5 µM. As for `COc1ccc(C(=O)O)cc1S(=O)(=O)Nc1cc(C(F)(F)F)ccc1N1CCCC1` [Example 75, 4-methoxy-3-(N-(2-(pyrrolidin-1-yl)-5-(trifluoromethyl)phenyl)sulfamoyl)benzoic acid], the IC50 was < 5 µM.

Regarding `COc1ccc(C(=O)O)cc1S(=O)(=O)Nc1cc(C(F)(F)F)ccc1N(C)C` [Example 77, 3-(N-(2-(dimethylamino)-5-(trifluoromethyl)phenyl)sulfamoyl)-4-methoxybenzoic acid], the IC50 was < 5 µM. `O=C(O)c1cc(Cl)cc(S(=O)(=O)Nc2cc(C(F)(F)F)ccc2N2CCCCC2)c1` [Example 80, 3-chloro-5-(N-(2-(piperidin-1-yl)-5-(trifluoromethyl)phenyl)sulfamoyl)benzoic acid]: the IC50 is < 5 µM. Consider `O=C(O)c1cc(S(=O)(=O)Nc2cc(C(F)(F)F)ccc2N2CCCCC2)ccc1Cl` [Example 83, 2-chloro-5-(N-(2-(piperidin-1-yl)-5-(trifluoromethyl)phenyl)sulfamoyl)benzoic acid], for which the IC50 is < 5 µM. In the case of `COc1ccc(C(=O)O)cc1S(=O)(=O)Nc1cc(C(F)(F)F)ccc1N1CCC(C)CC1` [Example 84, 4-methoxy-3-(N-(2-(4-methylpiperidin-1-yl)-5-(trifluoromethyl)phenyl)sulfamoyl)benzoic acid], the IC50 is < 5 µM. With `O=C(O)c1ccc(Cl)c(S(=O)(=O)Nc2cc(C(F)(F)F)ccc2N2CCCCCC2)c1` [Example 86, 3-(N-(2-(azepan-1-yl)-5-(trifluoromethyl)phenyl)sulfamoyl)-4-chlorobenzoic acid], the IC50 is < 0.5 µM.

For `O=C(O)c1ccc(O)c(S(=O)(=O)Nc2cc(C(F)(F)F)ccc2N2CCCCC2)c1` [Example 161, 4-hydroxy-3-(N-(2-(piperidin-1-yl)-5-(trifluoromethyl)phenyl)sulfamoyl)benzoic acid], the IC50 is < 0.5 µM. On to `COc1ccc(-c2nn[nH]n2)cc1S(=O)(=O)Nc1cc(C(F)(F)F)ccc1N1CCCCC1` [Example 171, 2-methoxy-N-(2-(piperidin-1-yl)-5-(trifluoromethyl)phenyl)-5-(tetrazol-5-yl)benzenesulfonamide], for which the IC50 is < 5 µM.
